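Five compound concentrations were applied to cells in 96-well plates for 48 hours; endpoints were derived by simple linear interpolation of the resulting dose-response curve. GI50 is the concentration that inhibits growth by half.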 The source made the active and inactive calls. No stated cut-off is given here; in the data, active = GI50 up to about 1.1 µM and inactive = higher.
Assays:
Test in all cases: inhibition of tumour cell growth, NCI panel, 48 h
MCF7 = system: MCF7
HCT-116 = system: HCT-116
SN12C = system: SN12C
NCI-H23 = system: NCI-H23
TK-10 = system: TK-10
SK-MEL-2 = system: SK-MEL-2
K562 = system: K562
SK-MEL-28 = system: SK-MEL-28
ACHN = system: ACHN
RPMI-8226 = system: RPMI-8226
UACC-257 = system: UACC-257
LOX IMVI = system: LOX IMVI
786-0 = system: 786-0
UACC-62 = system: UACC-62
SF-539 = system: SF-539
IGROV-1 = system: IGROV-1
NCI/ADR-RES = system: NCI/ADR-RES
SF-295 = system: SF-295
OVCAR-3 = system: OVCAR-3
SNB-19 = system: SNB-19

| Structure (SMILES) | GI50 (MCF7) | GI50 (HCT-116) | GI50 (SN12C) | GI50 (NCI-H23) | GI50 (TK-10) | GI50 (SK-MEL-2) | GI50 (K562) | GI50 (SK-MEL-28) | GI50 (ACHN) | GI50 (RPMI-8226) | GI50 (UACC-257) | GI50 (LOX IMVI) | GI50 (786-0) | GI50 (UACC-62) | GI50 (SF-539) | GI50 (IGROV-1) | GI50 (NCI/ADR-RES) | GI50 (SF-295) | GI50 (OVCAR-3) | GI50 (SNB-19) |
| --- | --- | --- | --- | --- | --- | --- | --- | --- | --- | --- | --- | --- | --- | --- | --- | --- | --- | --- | --- | --- |
| Cc1cc2[nH]c(Cl)c(/C=C3\C(=O)Nc4ccccc43)c2cc1O | 1.88 µM (inactive) | 2.8 µM (inactive) | 3.38 µM (inactive) | 2.32 µM (inactive) | 9.71 µM (inactive) | 2.1 µM (inactive) | 0.957 µM (active) | 9.71 µM (inactive) | 6.53 µM (inactive) | 2.7 µM (inactive) | 11.2 µM (inactive) | 3.16 µM (inactive) | 5.4 µM (inactive) | 1.23 µM (inactive) | 1.17 µM (inactive) | 1.8 µM (inactive) | 3.25 µM (inactive) | 2.79 µM (inactive) | 4.61 µM (inactive) | 3.27 µM (inactive) |
| Cc1ccccc1OC(C)C(=O)NN1C(=O)CC(=O)N(c2ccccc2)C1=S (stereo not given) | 42.3 µM (inactive) | 33.4 µM (inactive) | 43.7 µM (inactive) | 88.1 µM (inactive) | 63 µM (inactive) | 72.9 µM (inactive) | 41.4 µM (inactive) | > 100 µM (inactive) | 53.8 µM (inactive) | 43.3 µM (inactive) | 58.3 µM (inactive) | 54.3 µM (inactive) | 82.4 µM (inactive) | 54.1 µM (inactive) | > 100 µM (inactive) | 80.4 µM (inactive) | 61 µM (inactive) | 46.3 µM (inactive) | 53.2 µM (inactive) | 24 µM (inactive) |
| NC(=O)NCCCC(NC(=O)OCCCCCCn1ccc(=O)[nH]c1=O)C(=O)O (stereo not given) | > 100 µM (inactive) | > 100 µM (inactive) | 50.2 µM (inactive) | > 100 µM (inactive) | > 100 µM (inactive) | > 100 µM (inactive) | > 100 µM (inactive) | > 100 µM (inactive) | > 100 µM (inactive) | 34.5 µM (inactive) | > 100 µM (inactive) | > 100 µM (inactive) | > 100 µM (inactive) | > 100 µM (inactive) | > 100 µM (inactive) | > 100 µM (inactive) | > 100 µM (inactive) | > 100 µM (inactive) | > 100 µM (inactive) | > 100 µM (inactive) |
| CC1CCCCCC(=O)c2c(O)cc(O)cc2CC(=O)O1 (stereo not given) [CURVULARIN] | > 100 µM (inactive) | > 100 µM (inactive) | > 100 µM (inactive) | 48.9 µM (inactive) | 90.2 µM (inactive) | 76.6 µM (inactive) | 41.6 µM (inactive) | > 100 µM (inactive) | > 100 µM (inactive) | 67.8 µM (inactive) | 55.6 µM (inactive) | 43.9 µM (inactive) | > 100 µM (inactive) | > 100 µM (inactive) | > 100 µM (inactive) | > 100 µM (inactive) | > 100 µM (inactive) | 94.8 µM (inactive) | 96.6 µM (inactive) | > 100 µM (inactive) |
| COc1ccc(NCC(=O)Nn2c(C)nc3ccc(S(=O)(=O)Nc4ccc(OC)cc4)cc3c2=O)cc1 | > 100 µM (inactive) | > 100 µM (inactive) | > 100 µM (inactive) | > 100 µM (inactive) | > 100 µM (inactive) | > 100 µM (inactive) | > 100 µM (inactive) | > 100 µM (inactive) | > 100 µM (inactive) | > 100 µM (inactive) | > 100 µM (inactive) | > 100 µM (inactive) | > 100 µM (inactive) | > 100 µM (inactive) | > 100 µM (inactive) | 69.7 µM (inactive) | > 100 µM (inactive) | > 100 µM (inactive) | > 100 µM (inactive) | > 100 µM (inactive) |

— ChEMBL document CHEMBL1201862, “PubChem BioAssay data set” (2004)
